Earlier results on one compound are cited in patent US20060134216A1, “Enteric film coating composition containing enteric polymer micronized with detackifier” (priority 2004, published 2006).

The conditions of this series: aqueous solution at pH values under 4.0.

Take `COc1ccc2[nH]c([S+]([O-])Cc3ncc(C)c(OC)c3C)nc2c1` (stereo not shown) [omeprazole]: the half-life entry was “less than ten”.
